Experimental data taken from patent US10870638B2, “Pyridazinone compound or its salt, and herbicide containing it” (ISHIHARA SANGYO KAISHA, LTD., priority 2016, dated 2020).

Columns and labels:
Format in all cases: in vivo
Conditions in all cases: active ingredient amount 31 g/ha, 14th day after application
[1] = system: green foxtail (Setaria viridis L.); assay: Test Example 2: soil application on the day after sowing, growth inhibition rate on 14th day
Text: (§1) Upland field soil was put into a 1/300,000 hectare pot, and seeds of various plants (barnyardgrass (Echinochloa crus-qalli L.), crabgrass (Digitaris sanquinalis L.), green foxtail (Setaria viridis L.), redroot pigweed (Amaranthus retroflexus L.), prickly sida (Sida spinosa L.), velvetleaf (Abutilon theophrasti MEDIC.), rice (Oryza sativa L.), corn (Zea mays L.), wheat (Triticum aestivum L.), soybean (Glycine max Merr.)) were sown. On the day after sowing, wettable powders or emulsifiable concentrates of the compounds of the present invention prepared in accordance with a conventional preparation method, were weighed so as to achieve the prescribed active ingredient amounts, and diluted with water in an amount corresponding to 1,000 liters per 1 hectare, followed by soil application by a small sprayer.
(§2) On the 14th day after the application, the state of growth of the respective plants was visually observed, and the herbicidal effect was evaluated by a growth inhibition rate (%) of 0 (equivalent to the non-treated area) to 100 (complete kill).

[2] = system: velvetleaf (Abutilon theophrasti MEDIC.); assay: as above
Text: as §1, §2

[3] = system: corn (Zea mays L.); assay: as above
Text: as §1, §2

[4] = system: redroot pigweed (Amaranthus retroflexus L.); assay: as above
Text: as §1, §2

[5] = system: crabgrass (Digitaris sanquinalis L.); assay: as above
Text: as §1, §2

[6] = system: prickly sida (Sida spinosa L.); assay: as above
Text: as §1, §2

[7] = system: barnyardgrass (Echinochloa crus-qalli L.); assay: as above
Text: as §1, §2

[8] = system: rice (Oryza sativa L.); assay: as above
Text: as §1, §2

[9] = system: soybean (Glycine max Merr.); assay: as above
Text: as §1, §2

[10] = system: wheat (Triticum aestivum L.); assay: as above
Text: as §1, §2

[11] = system: green foxtail (Setaria viridis L.); assay: Test Example 1: foliar treatment, growth inhibition rate on 14th day
How it was run: (§3)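 Plants in upland soil were sprayed on the foliage at early leaf stages (wild oat 0.4–1.2, rice 0.2–2.7, green foxtail 0.5–3.2, soybean primary leaf) with wettable powder or emulsifiable concentrate formulations. Spray volume was 1,000 L/ha water containing 0.1 vol% spreader, at prescribed active-ingredient rates. Growth inhibition (0 = untreated, 100 = complete kill) was scored visually on day 14.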

[12] = system: crabgrass (Digitaria sanquinalis L.); assay: as above
How it was run: (§4)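 Visual 0–100% inhibition scoring (100 = complete kill) at 14 days after foliar treatment of soil-grown seedlings at species-specific leaf stages, with the compound sprayed as a wettable powder or emulsifiable concentrate dilution.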

[13] = system: wild oat (Avena fatua L.); assay: as above
How it was run: as §3

[14] = system: corn (Zea mays L.); assay: as above
How it was run: as §4

[15] = system: redroot pigweed (Amaranthus retroflexus L.); assay: as above
How it was run: as §4

[16] = system: italian ryegrass (Lolium multiflorum Lam.); assay: as above
How it was run: as §4

[17] = system: barnyardgrass (Echinochloa crus-qalli L.); assay: as above
How it was run: as §4

[18] = system: rice (Oryza sativa L.); assay: as above
How it was run: as §3

[19] = system: soybean (Glycine max Merr.); assay: as above
How it was run: as §3

[20] = system: wheat (Triticum aestivum L.); assay: as above
How it was run: as §4

Compound | Growth inhibition rate (%) Green foxtail [1] | Growth inhibition rate (%) Velvetleaf [2] | Growth inhibition rate (%) Corn [3] | Growth inhibition rate (%) Redroot pigweed [4] | Growth inhibition rate (%) Crabgrass [5] | Growth inhibition rate (%) Prickly sida [6] | Growth inhibition rate (%) Barnyardgrass [7] | Growth inhibition rate (%) Rice [8] | Growth inhibition rate (%) Soybean [9] | Growth inhibition rate (%) Wheat [10] | Growth inhibition rate (%) Green foxtail [11] | Growth inhibition rate (%) Crabgrass [12] | Growth inhibition rate (%) Wild oat [13] | Growth inhibition rate (%) Corn [14] | Growth inhibition rate (%) Redroot pigweed [15] | Growth inhibition rate (%) Italian ryegrass [16] | Growth inhibition rate (%) Barnyardgrass [17] | Growth inhibition rate (%) Rice [18] | Growth inhibition rate (%) Soybean [19] | Growth inhibition rate (%) Wheat [20]
CCc1ccc(Sc2ncc(C(F)(F)F)cc2Cl)cc1-c1c(OC(C)=O)c(C)nn(C)c1=O [1-46] | 99% | 0% | 0% | 0% | 90% | 0% | 80% | 30% | 0% | 30% | 100% | 100% | 100% | 98% | 30% | 99% | 100% | 80% | 0% | 98%
Cc1ccc(Oc2ncc(C(F)(F)F)cc2Cl)cc1-c1c(OC(=O)OC(C)(C)C)c(C)nn(C)c1=O [1-59] | 99% | 0% | 0% | 0% | 100% | 0% | 100% | 20% | 0% | 0% | 100% | 100% | 99% | 98% | 0% | 98% | 100% | 40% | 0% | 93%
Cc1ccc(Oc2ncc(C(F)(F)F)cc2Cl)cc1-c1c(OS(C)(=O)=O)c(C)nn(C)c1=O [1-62] | 99% | 0% | 0% | 0% | 100% | 0% | 100% | 20% | 0% | 0% | 100% | 100% | 99% | 100% | 0% | 98% | 100% | 88% | 0% | 90%
CCn1nc(C)c(O)c(-c2cc(Oc3ncc(C(F)(F)F)cc3Cl)ccc2C)c1=O [1-65] | 99% | 0% | 0% | 0% | 100% | 0% | 100% | 20% | 0% | 0% | 100% | 100% | 98% | 98% | 0% | 98% | 99% | 60% | 0% | 10%
CCc1ccc(Oc2ncc(C(F)(F)F)cc2Cl)cc1-c1c(O)cnn(C)c1=O [1-95] | 100% | 0% | 80% | 0% | 100% | 0% | 100% | 50% | 0% | 0% | 100% | 100% | 99% | 100% | 0% | 95% | 100% | 80% | 0% | 45%
CCc1nn(C)c(=O)c(-c2cc(Oc3ncc(C(F)(F)F)cc3Cl)ccc2C)c1O [1-98] | 30% | 0% | 0% | 0% | 20% | 0% | 95% | 35% | 0% | 0% | 60% | 30% | 65% | 80% | 0% | 78% | 88% | 0% | 10% | 20%
COCOc1c(C)nn(C)c(=O)c1-c1cc(Oc2ncc(C(F)(F)F)cc2Cl)ccc1C [1-132] | 98% | 0% | 10% | 0% | 93% | 0% | 99% | 0% | 0% | 0% | 100% | 100% | 98% | 99% | 0% | 98% | 100% | 88% | 20% | 98%
Cc1nn(C)c(=O)c(-c2cc(Oc3ncc(C(F)(F)F)cc3Cl)ccc2C2CC2)c1O [1-149] | 100% | 0% | 0% | 0% | 99% | 0% | 98% | 0% | 0% | 0% | 100% | 98% | 85% | 50% | 10% | 83% | 100% | 70% | 0% | 20%
